For 32 molecules, TGI and GI50 results are on record in PubChem BioAssay (NCI).

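Grown in 96-well plates, cells were treated for 48 hours with each compound at five concentrations. Insufficient inhibition: endpoint recorded as highest concentration tested. Abbreviation: GI50, concentration required for 50% inhibition of growth. TGI: concentration producing complete growth inhibition.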

Some test systems named below: HS 578T breast; MDA-N; PC-3 prostate; RXF-631 renal; SNB-78 CNS; XF 498 CNS.
Common to all, as to experiment: inhibition of tumour cell growth, NCI panel, 48 h

In the case of `COc1ccc(NC(=O)CC(=O)n2nc(-c3ccccc3)c(N=Nc3ccc(C)cc3)c2-c2ccccc2)cc1`, the TGI was 60.7 µM in the assay with HS 578T breast; over 100 µM in the assay with MDA-N; over 57.9 µM in the assay with PC-3 prostate; over 100 µM with RXF-631 renal; 61.2 µM in the assay with SNB-78 CNS; 24.9 µM in the assay on XF 498 CNS.

Consider `COC(=O)c1nc(N)[nH]c(=O)c1-c1ccc(Cl)cc1`, for which the TGI in the assay with RXF-631 renal, in the assay on SNB-78 CNS and with XF 498 CNS was over 100 µM throughout.

As for `O=C(/C=C(\O)C(=O)O)/C=C(\O)c1ccc(Cl)cc1`, the TGI in the assay on SNB-78 CNS and in the assay on XF 498 CNS was over 100 µM throughout.

In turn, `CC(C)CCC[C@@H](C)C1CCC2[C@@H]3CC=C4C[C@@H](OC(=O)CCC(=O)NCC[N+](C)(C)CCCS(=O)(=O)[O-])CC[C@]4(C)C3CC[C@@]21C` (stereo partly specified) displayed a TGI in the assay on SNB-78 CNS of 70.1 µM.

For `Cc1cc(C)c(-c2noc(-c3ccc(Cl)cc3)c2C2=NCCN2)c(C)c1`, the values for the TGI in the assay on RXF-631 renal, with SNB-78 CNS and with XF 498 CNS were over 100 µM, 58.3 µM and 38.4 µM, respectively.

For `CCCCc1c2c(nc3c1CCc1cc(C=O)c(N)nc1-3)/C(=C/c1ccccc1)CCC2`, the TGI in the assay with SNB-78 CNS and with XF 498 CNS was over 100 µM throughout.

In the case of `COc1cc2c3c(c1OC)C1(C=CC(=O)C=C1)CC3N(C(=O)OC(C)(C)C(Cl)(Cl)Cl)CC2` (stereo unspecified), the TGI worked out at 33.8 µM in the assay with SNB-78 CNS and 23.9 µM in the assay with XF 498 CNS.

`Cc1cccc2c1NC(c1c(C)[nH]c3ccccc13)C2` (stereo unspecified): the TGI in the assay with RXF-631 renal and in the assay with XF 498 CNS was over 100 µM each time.

On to `Cn1c(=O)c(C2c3ccccc3Oc3c2c(=O)n(C)c2ccccc32)c(O)c2ccccc21` (stereo unspecified), for which the TGI was over 100 µM with RXF-631 renal, over 100 µM in the assay with SNB-78 CNS and 75.9 µM in the assay on XF 498 CNS.

Turning to `COc1ccc2c(c1)C(CCN)C(=O)N2` (stereo unspecified), the TGI in the assay on RXF-631 renal, in the assay with SNB-78 CNS and with XF 498 CNS was over 100 µM each time.

As to `O=C(CC1Sc2ccccc2NC1=O)Nc1ccc([N+](=O)[O-])cc1[N+](=O)[O-]` (stereo unspecified), the figures for the TGI with RXF-631 renal and in the assay on SNB-78 CNS were 41.4 µM and 51.7 µM, respectively.

`O=C1/C=C(/c2ccc(O)cc2)[C@H](O)Cc2ccc(OC3OC(CO)C(O)C(O)C3O)cc2O1` (stereo partly specified) (tested in a mixture with another compound): the TGI in the assay on RXF-631 renal and with SNB-78 CNS was over 100 µM each time.

As for `CCC(C)CNC1=C(NC(C)=O)C(=O)c2ccccc2C1=O` (stereo unspecified), the TGI in the assay on SNB-78 CNS and in the assay with XF 498 CNS was over 100 µM in each case.

As to `COC1=C(C(=O)OC(C)(C)C)C23CCCCC2(C(C(=O)OC(C)(C)C)=C(OC)C3C(=O)OC(C)(C)C)C1C(=O)OC(C)(C)C` (stereo unspecified), the results for the TGI in the assay with RXF-631 renal, in the assay on SNB-78 CNS and with XF 498 CNS were 35.3 µM, over 100 µM and over 100 µM, respectively.

`COc1cc(OC)c(Oc2cccc(OC)c2OC)c(OC)c1`: the TGI in the assay with SNB-78 CNS and in the assay with XF 498 CNS was over 100 µM each time.

For `COc1ccc(-c2cc(-c3ccco3)c(C#N)c(=O)n2C2OC(OC(=O)c3ccccc3)C(OC(=O)c3ccccc3)C2OC(=O)c2ccccc2)cc1` (stereo unspecified), the TGI in the assay with RXF-631 renal and in the assay with SNB-78 CNS was over 100 µM throughout.

Turning to `COc1ccccc1NC(=O)CC(=O)NNCC(=O)Nc1nc(-c2ccccc2)cs1`, in the assay on SNB-78 CNS, the TGI was over 100 µM.

For the molecule `COc1ccc(-n2cc(-c3ccc(Cl)cc3)[nH]c2=S)cc1Cl`, in the assay on HS 578T breast, the GI50 was 23.8 µM and the TGI amounted to 56.6 µM. In the assay with PC-3 prostate, the GI50 was 30.7 µM and the TGI was over 100 µM.

As to `COc1ccc(C2CC(c3cccc(Nc4ccnc5cc(Cl)ccc45)c3)=NN2c2ccccc2)cc1` (stereo unspecified), the GI50 in the assay on HS 578T breast is 6.79 µM; in the assay on PC-3 prostate, 0.453 µM. Also, the TGI with HS 578T breast was determined as 73.2 µM; in the assay with PC-3 prostate, 95.3 µM.

In the case of `COC(=O)CC[C@@H](NC(=O)C(C)NC(=O)COC1C(O)C(COC(=O)CCCCCCCCCCNC(=O)c2ccc([N+](=O)[O-])c3[nH]c4cc(Br)ccc4c(=O)c23)OC(OCc2ccccc2)C1NC(C)=O)C(N)=O` (stereo partly specified), the TGI with SNB-78 CNS and with XF 498 CNS was over 100 µM in each case.

As to `NNC(=S)N/N=C(\c1nc2ccc(Cl)cc2[nH]c1=O)C(O)c1ccc(Cl)cc1Cl` (stereo unspecified), the TGI with RXF-631 renal, with SNB-78 CNS and in the assay with XF 498 CNS was over 100 µM in each case.

With `Cc1ccc(NC(=O)C(=O)C2C(=O)C3=C(CC2(C)C)NC2C=CC=CC2S3)c(C)c1` (stereo unspecified), the TGI with HS 578T breast, in the assay on MDA-N and with PC-3 prostate was over 100 µM each time.

With `COc1cc2c(cc1OC)[C@@H]1[C@H](C2=O)c2ccc([N+](=O)[O-])cc2C(=O)N1CCCBr`, in the assay with HS 578T breast, the GI50 was 5.45 µM and the TGI was found to be 50.6 µM. Moreover, in the assay with PC-3 prostate, the GI50 is 1.19 µM and the TGI is over 70.4 µM.

In the case of `O=C(O)/C=C/C(=O)Nc1cccc2c1-c1ccccc1C2=O`, the TGI in the assay on HS 578T breast was 47.5 µM; in the assay on MDA-N it was 12.1 µM; in the assay with PC-3 prostate, over 88.9 µM.

For the molecule `O=C(O)C(=O)/C=C\c1ccc(Cl)cc1`, the TGI in the assay with SNB-78 CNS and in the assay on XF 498 CNS was over 100 µM each time.

`O=C(NCCc1ccccc1)C(c1csc2ccccc12)N(C(=O)CCl)c1ccc(-c2cnco2)cc1` (stereo unspecified): the GI50 in the assay with HS 578T breast is 1.44 µM; with PC-3 prostate, 0.511 µM. The TGI amounted to 7.2 µM in the assay with HS 578T breast and 1.9 µM in the assay with PC-3 prostate.

As to `CCOc1cccc2cccnc12`, the TGI with XF 498 CNS was over 100 µM.

With `CC(=O)OCC1OC(n2c(-c3ccc(N)cc3)cc(-c3ccco3)c(C#N)c2=O)C(OC(C)=O)C(OC(C)=O)C1OC(C)=O` (stereo unspecified), the TGI in the assay with RXF-631 renal and in the assay with SNB-78 CNS was over 50 µM in each case.

`NC(N)=Nc1nc2cc(N)ccc2o1`: the TGI in the assay with RXF-631 renal and in the assay with SNB-78 CNS was over 100 µM throughout.

Consider `N#CC1(Cc2ccccc2Cl)c2ccccc2C=CN1C(=O)c1ccccc1` (stereo unspecified), for which the TGI in the assay on SNB-78 CNS and with XF 498 CNS was over 100 µM in each case.

On to `c1cc(C2O[C@H]3CCCN3[C@@H]2c2ccncc2)ccn1` (stereo partly specified), for which the TGI in the assay with SNB-78 CNS and in the assay on XF 498 CNS was over 100 µM throughout.

Turning to `Cc1cc(C)cc(NC(=O)CCC(=O)C2CCC/C2=N\NC(=O)C(=O)NN)c1` (stereo unspecified), the TGI in the assay with RXF-631 renal and in the assay on XF 498 CNS was over 100 µM in each case.
